According to patent US20030187076A1, “Non-steroidal analogs of 2-methoxyestradiol” (priority 2002, published 2003):

Legend:
[1] = system: vascular endothelial cell; conditions: endothelial versus tumor cell proliferation; cited from earlier work
[2] = system: chick embryo chorioallantoic membrane; test: chick embryo chorioallantoic membrane (CAM) assay; type: in vivo; conditions: 100 μg methylcellulose disk, after 48 hours
Description: Anti-proliferative activity can be evaluated in situ by testing the ability of the new non-steroidal estradiol derivatives to inhibit the proliferation of new blood vessel cells (angiogenesis). A suitable assay is the chick embryo chorioallantoic membrane (CAM) assay described by Crum et al. Science 230:1375 (1985). See also, U.S. Pat. No. 5,001,116, hereby incorporated by reference, which describes the CAM assay. Briefly, fertilized chick embryos are removed from their shell on day 3 or 4, and a methylcellulose disc containing the drug is implanted on the chorioallantoic membrane. The embryos are examined 48 hours later and, if a clear avascular zone appears around the methylcellulose disc, the diameter of that zone is measured.

MCF-7 cell = test: estrogen dependent MCF-7 cell proliferation; type: cell-based; conditions: over a wide range of concentrations
Description: 2-Methoxyestradiol is an endogenous, steroidal metabolite of estradiol (E2) that has potent anti-proliferative activity and induces apoptosis in a wide variety of tumor and non-tumor cell lines. […] What is needed is a series of compounds that constitute analogs of 2-methoxyestradiol which are non-steroidal in structure and which will have similar biological properties to 2-methoxyestradiol and that can be used in similar applications.

Row | Compound | half-maximal inhibition of endothelial cell proliferation, concentration lower than for tumor cell proliferation [1] [logs] | inhibition of cell mitosis and growth of new blood vessels [2] | estrogenic activity (MCF-7 cell)
1 | CO[C@@H]1[C@H](OC(=O)NC(=O)CCl)CC[C@]2(CO2)[C@H]1[C@@]1(C)O[C@@H]1CC=C(C)C [AGM-1470] | 4 | – | –
2 | COc1cc2c(cc1O)CC[C@@H]1[C@@H]2CC[C@]2(C)[C@@H](O)CC[C@@H]12 [2-methoxyestradiol] | – | inhibit cell mitosis and the growth of new blood vessels | not estrogenic
